Tests used:
Assay in all cases: KINOMEscan
Format in all cases: binding
MKK7 = MKK7 (Homo sapiens (Human), UniProt O14733); settings: read-out: percent control
Text: (§1) Example 2. In Vitro Kinase Selectivity Profiling of the Compounds of the Present Disclosure

[1] = target: ABL1(F317I)-phosphorylated (Homo sapiens (Human), UniProt P00519, F317I); settings: read-out: percent control
Text: as §1

HPK1 = HPK1 (Homo sapiens (Human), UniProt Q92918); settings: read-out: percent control
Text: as §1

FLT3 = FLT3 (Homo sapiens (Human), UniProt P36888); settings: read-out: percent control
Text: as §1

AKT2 = AKT2 (Homo sapiens (Human), UniProt P31751); settings: read-out: percent control
Text: as §1

PRKCI = PRKCI (Homo sapiens (Human), UniProt P41743); settings: read-out: percent control
Text: as §1

MYLK2 = MYLK2 (Homo sapiens (Human), UniProt Q9H1R3); settings: read-out: percent control
Text: as §1

[2] = target: RPS6KA4(Kin.Dom.2-terminal) (Homo sapiens (Human), UniProt O75676); settings: read-out: percent control
RPS6KA4(Kin.Dom.2-terminal), sequence (O75676 411-674 limits assumed): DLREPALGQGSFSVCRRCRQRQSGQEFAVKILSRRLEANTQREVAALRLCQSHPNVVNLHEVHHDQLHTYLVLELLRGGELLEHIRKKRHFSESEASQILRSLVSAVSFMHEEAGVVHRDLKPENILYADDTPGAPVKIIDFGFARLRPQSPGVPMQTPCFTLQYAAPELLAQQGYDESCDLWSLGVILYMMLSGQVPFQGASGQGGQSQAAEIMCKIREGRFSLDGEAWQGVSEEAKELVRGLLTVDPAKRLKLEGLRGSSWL
Text: as §1

WEE1 = WEE1 (Homo sapiens (Human), UniProt P30291); settings: read-out: percent control
Text: as §1

MKNK1 = MKNK1 (Homo sapiens (Human), UniProt Q9BUB5); settings: read-out: percent control
Text: as §1

TAOK1 = TAOK1 (Homo sapiens (Human), UniProt Q7L7X3); settings: read-out: percent control
TAOK1, sequence (Q7L7X3 whole entry): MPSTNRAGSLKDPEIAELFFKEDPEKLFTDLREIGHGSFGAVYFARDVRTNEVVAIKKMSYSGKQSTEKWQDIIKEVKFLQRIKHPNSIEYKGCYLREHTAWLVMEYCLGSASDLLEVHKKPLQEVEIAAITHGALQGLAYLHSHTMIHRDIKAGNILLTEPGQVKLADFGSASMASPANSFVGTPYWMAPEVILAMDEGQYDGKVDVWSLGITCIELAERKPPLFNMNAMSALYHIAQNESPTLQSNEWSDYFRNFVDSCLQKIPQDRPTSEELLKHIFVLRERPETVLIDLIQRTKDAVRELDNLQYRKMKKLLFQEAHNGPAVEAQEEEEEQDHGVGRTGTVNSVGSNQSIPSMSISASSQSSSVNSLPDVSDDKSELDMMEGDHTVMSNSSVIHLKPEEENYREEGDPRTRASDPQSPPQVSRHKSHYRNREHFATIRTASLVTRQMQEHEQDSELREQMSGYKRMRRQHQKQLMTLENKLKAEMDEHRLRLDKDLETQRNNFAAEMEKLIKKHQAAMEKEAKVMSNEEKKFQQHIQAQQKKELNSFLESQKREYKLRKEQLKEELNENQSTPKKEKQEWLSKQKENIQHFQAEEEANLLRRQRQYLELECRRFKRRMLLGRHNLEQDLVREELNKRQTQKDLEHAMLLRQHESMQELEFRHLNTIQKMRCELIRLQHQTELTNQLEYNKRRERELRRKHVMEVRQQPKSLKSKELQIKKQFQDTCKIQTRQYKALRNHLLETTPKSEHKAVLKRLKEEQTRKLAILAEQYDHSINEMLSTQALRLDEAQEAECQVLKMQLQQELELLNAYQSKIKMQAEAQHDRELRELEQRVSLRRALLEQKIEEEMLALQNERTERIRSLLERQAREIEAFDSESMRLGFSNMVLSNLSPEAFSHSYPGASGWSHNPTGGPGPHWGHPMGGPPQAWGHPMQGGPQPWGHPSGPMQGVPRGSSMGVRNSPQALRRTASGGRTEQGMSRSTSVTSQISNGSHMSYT
Text: as §1

KIT(A829P) = KIT(A829P) (Homo sapiens (Human), UniProt P10721, A829P); settings: read-out: percent control
Text: as §1

PAK4 = PAK4 (Homo sapiens (Human), UniProt O96013); settings: read-out: percent control
Text: as §1

PIP5K2C = PIP5K2C (Homo sapiens (Human), UniProt Q8TBX8); settings: read-out: percent control
Text: as §1

PAK6 = PAK6 (Homo sapiens (Human), UniProt Q9NQU5); settings: read-out: percent control
Text: as §1

EGFR(S752-I759del) = EGFR(S752-I759del) (Homo sapiens (Human), UniProt P00533, DEL752-759); settings: read-out: percent control
EGFR(S752-I759del), sequence (P00533 other isoform, or with tags, fused parts or gaps del 1-668/del 752-759/del 1012-1210 limits assumed): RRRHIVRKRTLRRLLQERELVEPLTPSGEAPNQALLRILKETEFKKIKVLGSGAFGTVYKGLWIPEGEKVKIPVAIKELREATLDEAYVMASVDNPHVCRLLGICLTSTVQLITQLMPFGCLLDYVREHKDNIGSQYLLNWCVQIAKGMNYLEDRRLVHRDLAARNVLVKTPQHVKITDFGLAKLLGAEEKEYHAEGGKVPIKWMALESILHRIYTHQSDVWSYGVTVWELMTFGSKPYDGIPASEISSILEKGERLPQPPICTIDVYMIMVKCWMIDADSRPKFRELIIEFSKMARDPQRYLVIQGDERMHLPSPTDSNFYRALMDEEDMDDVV
Text: as §1

[3] = target: ABL1(H396P)-phosphorylated (Homo sapiens (Human), UniProt P00519, H396P); settings: read-out: percent control
Text: as §1

LRRK2 = LRRK2 (Homo sapiens (Human), UniProt Q5S007); settings: read-out: percent control
Text: as §1

AMPK-alpha1 = AMPK-alpha1 (Homo sapiens (Human), UniProt Q13131); settings: read-out: percent control
AMPK-alpha1, sequence (Q13131 whole entry): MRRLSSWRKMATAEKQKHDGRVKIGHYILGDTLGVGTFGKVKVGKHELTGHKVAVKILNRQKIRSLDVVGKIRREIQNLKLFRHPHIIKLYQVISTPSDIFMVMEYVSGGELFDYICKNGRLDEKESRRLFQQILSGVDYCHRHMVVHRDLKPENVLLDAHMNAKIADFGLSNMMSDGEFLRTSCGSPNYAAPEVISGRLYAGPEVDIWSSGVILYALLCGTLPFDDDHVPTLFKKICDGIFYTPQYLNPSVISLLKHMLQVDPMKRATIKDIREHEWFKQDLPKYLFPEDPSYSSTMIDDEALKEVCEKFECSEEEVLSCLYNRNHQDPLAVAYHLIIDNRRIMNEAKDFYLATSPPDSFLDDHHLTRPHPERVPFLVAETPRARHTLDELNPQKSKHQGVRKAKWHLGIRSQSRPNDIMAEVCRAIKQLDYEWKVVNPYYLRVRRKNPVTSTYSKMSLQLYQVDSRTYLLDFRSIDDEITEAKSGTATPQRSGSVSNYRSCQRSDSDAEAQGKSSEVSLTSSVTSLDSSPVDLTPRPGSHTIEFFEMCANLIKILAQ
Text: as §1

NEK1 = NEK1 (Homo sapiens (Human), UniProt Q96PY6); settings: read-out: percent control
Text: as §1

MARK4 = MARK4 (Homo sapiens (Human), UniProt Q96L34); settings: read-out: percent control
Text: as §1

MAK = MAK (Homo sapiens (Human), UniProt P20794); settings: read-out: percent control
Text: as §1

RIPK1 = RIPK1 (Homo sapiens (Human), UniProt Q13546); settings: read-out: percent control
Text: as §1

BRSK2 = BRSK2 (Homo sapiens (Human), UniProt Q8IWQ3); settings: read-out: percent control
Text: as §1

NIK = NIK (Homo sapiens (Human), UniProt Q99558); settings: read-out: percent control
Text: as §1

S6K1 = S6K1 (Homo sapiens (Human), UniProt P23443); settings: read-out: percent control
Text: as §1

YSK4 = YSK4 (Homo sapiens (Human), UniProt Q56UN5); settings: read-out: percent control
Text: as §1

MUSK = MUSK (Homo sapiens (Human), UniProt O15146); settings: read-out: percent control
Text: as §1

CLK2 = CLK2 (Homo sapiens (Human), UniProt P49760); settings: read-out: percent control
CLK2, sequence (P49760 whole entry): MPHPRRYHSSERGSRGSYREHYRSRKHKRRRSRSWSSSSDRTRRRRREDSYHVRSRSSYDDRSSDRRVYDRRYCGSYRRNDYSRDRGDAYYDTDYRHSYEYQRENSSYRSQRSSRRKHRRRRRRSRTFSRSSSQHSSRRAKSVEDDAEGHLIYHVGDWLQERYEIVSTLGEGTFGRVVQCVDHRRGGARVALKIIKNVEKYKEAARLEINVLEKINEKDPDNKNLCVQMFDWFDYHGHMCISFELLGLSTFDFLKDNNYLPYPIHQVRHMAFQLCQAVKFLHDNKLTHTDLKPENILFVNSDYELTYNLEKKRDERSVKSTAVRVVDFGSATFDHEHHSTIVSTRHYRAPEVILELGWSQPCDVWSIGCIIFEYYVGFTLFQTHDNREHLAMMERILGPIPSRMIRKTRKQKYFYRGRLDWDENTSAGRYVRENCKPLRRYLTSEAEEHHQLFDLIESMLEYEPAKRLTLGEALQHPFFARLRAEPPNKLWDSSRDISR
Text: as §1

DCAMKL3 = DCAMKL3 (Homo sapiens (Human), UniProt Q9C098); settings: read-out: percent control
Text: as §1

HCK = HCK (Homo sapiens (Human), UniProt P08631); settings: read-out: percent control
Text: as §1

FLT3(ITD, D835V) = settings: 1 μM
Text: as §1

BRSK1 = BRSK1 (Homo sapiens (Human), UniProt Q8TDC3); settings: read-out: percent control
BRSK1, sequence (Q8TDC3 whole entry): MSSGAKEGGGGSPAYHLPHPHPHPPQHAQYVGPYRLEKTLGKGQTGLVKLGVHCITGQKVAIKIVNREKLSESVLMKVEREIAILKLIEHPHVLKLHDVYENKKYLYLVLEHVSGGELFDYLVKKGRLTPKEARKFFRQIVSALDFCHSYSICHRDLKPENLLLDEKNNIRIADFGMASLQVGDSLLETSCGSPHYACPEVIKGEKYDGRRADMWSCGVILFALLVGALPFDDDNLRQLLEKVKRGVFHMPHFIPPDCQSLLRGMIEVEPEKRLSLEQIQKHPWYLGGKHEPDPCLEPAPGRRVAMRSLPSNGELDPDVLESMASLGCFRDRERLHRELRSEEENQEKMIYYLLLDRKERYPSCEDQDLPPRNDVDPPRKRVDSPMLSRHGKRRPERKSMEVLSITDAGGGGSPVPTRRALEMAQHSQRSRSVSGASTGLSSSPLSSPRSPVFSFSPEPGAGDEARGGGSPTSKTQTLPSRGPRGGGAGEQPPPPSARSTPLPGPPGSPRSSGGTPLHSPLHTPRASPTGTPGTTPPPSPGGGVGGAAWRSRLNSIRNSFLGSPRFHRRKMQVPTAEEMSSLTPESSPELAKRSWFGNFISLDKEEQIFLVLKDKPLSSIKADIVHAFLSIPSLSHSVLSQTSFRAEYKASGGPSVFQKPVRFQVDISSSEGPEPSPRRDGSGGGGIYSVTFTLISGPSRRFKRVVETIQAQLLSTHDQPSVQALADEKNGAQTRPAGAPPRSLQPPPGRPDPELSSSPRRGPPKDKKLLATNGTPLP
Text: as §1

YES = YES (Homo sapiens (Human), UniProt P07947); settings: read-out: percent control
Text: as §1

NEK2 = NEK2 (Homo sapiens (Human), UniProt P51955); settings: read-out: percent control
Text: as §1

MEK4 = MEK4 (Homo sapiens (Human), UniProt P45985); settings: read-out: percent control
Text: as §1

p38-alpha = p38-alpha (Homo sapiens (Human), UniProt Q16539); settings: read-out: percent control
p38-alpha, sequence (Q16539 whole entry): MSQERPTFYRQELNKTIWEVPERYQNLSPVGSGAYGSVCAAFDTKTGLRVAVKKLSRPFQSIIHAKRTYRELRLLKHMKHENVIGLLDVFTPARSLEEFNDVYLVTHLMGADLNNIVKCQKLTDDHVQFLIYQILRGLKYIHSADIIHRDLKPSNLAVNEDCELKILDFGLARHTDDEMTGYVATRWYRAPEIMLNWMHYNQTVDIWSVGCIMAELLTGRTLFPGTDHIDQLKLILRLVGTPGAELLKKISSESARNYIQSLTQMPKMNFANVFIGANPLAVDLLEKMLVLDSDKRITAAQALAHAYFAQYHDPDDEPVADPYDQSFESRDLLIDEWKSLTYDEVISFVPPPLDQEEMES
Text: as §1

STK33 = STK33 (Homo sapiens (Human), UniProt Q9BYT3); settings: read-out: percent control
Text: as §1

GSK3B = GSK3B (Homo sapiens (Human), UniProt P49841); settings: read-out: percent control
Text: as §1

MAP4K2 = MAP4K2 (Homo sapiens (Human), UniProt Q12851); settings: read-out: percent control
Text: as §1

HPK1, sequence (Q92918 whole entry): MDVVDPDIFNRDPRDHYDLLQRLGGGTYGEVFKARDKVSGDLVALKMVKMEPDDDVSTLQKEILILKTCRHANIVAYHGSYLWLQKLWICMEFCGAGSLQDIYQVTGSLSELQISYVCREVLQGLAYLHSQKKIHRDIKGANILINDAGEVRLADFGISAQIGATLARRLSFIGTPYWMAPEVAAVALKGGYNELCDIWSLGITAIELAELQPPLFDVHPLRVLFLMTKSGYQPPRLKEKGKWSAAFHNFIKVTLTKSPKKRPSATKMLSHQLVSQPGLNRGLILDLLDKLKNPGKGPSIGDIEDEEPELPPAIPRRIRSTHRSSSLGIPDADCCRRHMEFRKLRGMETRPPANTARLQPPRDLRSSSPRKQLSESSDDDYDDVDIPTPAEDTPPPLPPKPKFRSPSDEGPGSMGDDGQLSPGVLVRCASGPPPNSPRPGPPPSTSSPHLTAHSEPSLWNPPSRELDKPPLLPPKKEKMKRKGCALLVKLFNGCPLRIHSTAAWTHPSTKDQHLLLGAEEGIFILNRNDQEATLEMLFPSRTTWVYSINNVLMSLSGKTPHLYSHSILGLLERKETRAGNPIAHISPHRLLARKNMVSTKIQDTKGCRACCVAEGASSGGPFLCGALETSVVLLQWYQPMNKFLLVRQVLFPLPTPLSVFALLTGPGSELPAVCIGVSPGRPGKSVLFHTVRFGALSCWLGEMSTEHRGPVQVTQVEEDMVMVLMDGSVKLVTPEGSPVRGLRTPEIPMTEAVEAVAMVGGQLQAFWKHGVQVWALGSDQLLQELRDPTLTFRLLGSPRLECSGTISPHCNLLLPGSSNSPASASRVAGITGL

Structure (SMILES) | remaining binding at 1 µM (MKK7) [%] | remaining binding at 1 µM [1] [%] | remaining binding at 1 µM (HPK1) [%] | remaining binding at 1 µM (FLT3) [%] | remaining binding at 1 µM (AKT2) [%] | remaining binding at 1 µM (PRKCI) [%] | remaining binding at 1 µM (MYLK2) [%] | remaining binding at 1 µM [2] [%] | remaining binding at 1 µM (WEE1) [%] | remaining binding at 1 µM (MKNK1) [%] | remaining binding at 1 µM (TAOK1) [%] | remaining binding at 1 µM (KIT(A829P)) [%] | remaining binding at 1 µM (PAK4) [%] | remaining binding at 1 µM (PIP5K2C) [%] | remaining binding at 1 µM (PAK6) [%] | remaining binding at 1 µM (EGFR(S752-I759del)) [%] | remaining binding at 1 µM [3] [%] | remaining binding at 1 µM (LRRK2) [%] | remaining binding at 1 µM (AMPK-alpha1) [%] | remaining binding at 1 µM (NEK1) [%] | also measured
CCN1CCN(Cc2ccc(Nc3nc4ccc(Oc5ccnc(NC(C)=O)c5)cc4n3C)cc2C(F)(F)F)CC1 [Compound I-2] | 80 | 82 | 69 | 15 | 100 | 95 | 100 | 88 | 95 | 95 | 77 | 0 | 94 | 96 | 93 | 100 | 45 | 100 | 93 | 84 | remaining binding at 1 µM (MARK4): 98%; remaining binding at 1 µM (MAK): 78%; remaining binding at 1 µM (RIPK1): 88%; remaining binding at 1 µM (BRSK2): 100%; remaining binding at 1 µM (NIK): 100%; remaining binding at 1 µM (S6K1): 82%; remaining binding at 1 µM (YSK4): 51%; remaining binding at 1 µM (MUSK): 100%; remaining binding at 1 µM (CLK2): 64%; remaining binding at 1 µM (DCAMKL3): 85%; remaining binding at 1 µM (HCK): 89%; percent control (FLT3(ITD, D835V)): 100%; remaining binding at 1 µM (BRSK1): 100%; remaining binding at 1 µM (YES): 82%; remaining binding at 1 µM (NEK2): 97%; remaining binding at 1 µM (MEK4): 97%; remaining binding at 1 µM (p38-alpha): 92%; remaining binding at 1 µM (STK33): 76%; remaining binding at 1 µM (GSK3B): 76%; remaining binding at 1 µM (MAP4K2): 100%
CCN1CCN(Cc2ccc(Nc3nc4ccc(Oc5ccnc(NC(C)=O)c5)c(C)c4n3C)cc2C(F)(F)F)CC1 [Compound I-6, N-(4-(2-(4-((4-ethylpiperazin-1-yl)methyl)-3-(trifluoromethyl)phenylamino)-1,7-dimethyl-1H-benzo[d]imidazol-6-yloxy)pyridin-2-yl)acetamide] | 94 | 34 | 56 | 1 | 100 | 71 | 92 | 89 | 100 | 80 | 46 | 0 | 97 | 93 | 90 | 94 | 30 | 86 | 95 | 79 | remaining binding at 1 µM (MARK4): 83%; remaining binding at 1 µM (MAK): 86%; remaining binding at 1 µM (RIPK1): 96%; remaining binding at 1 µM (BRSK2): 74%; remaining binding at 1 µM (NIK): 100%; remaining binding at 1 µM (S6K1): 84%; remaining binding at 1 µM (YSK4): 67%; remaining binding at 1 µM (MUSK): 72%; remaining binding at 1 µM (CLK2): 91%; remaining binding at 1 µM (DCAMKL3): 95%; remaining binding at 1 µM (HCK): 34%; percent control (FLT3(ITD, D835V)): 61%; remaining binding at 1 µM (BRSK1): 100%; remaining binding at 1 µM (YES): 84%; remaining binding at 1 µM (NEK2): 91%; remaining binding at 1 µM (MEK4): 91%; remaining binding at 1 µM (p38-alpha): 44%; remaining binding at 1 µM (STK33): 66%; remaining binding at 1 µM (GSK3B): 100%; remaining binding at 1 µM (MAP4K2): 68%

Source: US12522583B2, “Benzimidazole derivatives and aza-benzimidazole derivatives as Janus kinase 2 inhibitors and uses thereof” (Dana-Farber Cancer Institute, Inc., priority 2018, dated 2026)
